According to PubChem BioAssay (NCI):
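Compound exposure: 48 hours, 5 concentrations, 96-well plates. GI50 is the concentration that inhibits growth by half. The concentration for full growth arrest is given as TGI.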

Columns and labels:
Assay in all cases: NCI tumour cell line growth inhibition, 48 h
M19-MEL melanoma = system: M19-MEL melanoma
XF 498 CNS = system: XF 498 CNS
RXF-631 renal = system: RXF-631 renal
DLD-1 colon = system: DLD-1 colon
SNB-78 CNS = system: SNB-78 CNS
HOP-18 NSCLC = system: HOP-18 NSCLC
KM20L2 colon = system: KM20L2 colon
MDA-N = system: MDA-N
P388 leukemia = system: P388 leukemia
SN12K1 renal = system: SN12K1 renal
P388/ADR leukemia = system: P388/ADR leukemia

Compound | TGI (M19-MEL melanoma) | TGI (XF 498 CNS) | TGI (DLD-1 colon) | TGI (SNB-78 CNS) | TGI (HOP-18 NSCLC) | TGI (KM20L2 colon) | TGI (MDA-N) | further results
N#CC1=C(c2ccccc2)OC2(N)OC(c3ccccc3)=C(C#N)C12C#N (configuration not stated) | > 100 µM | > 100 µM | > 100 µM | > 100 µM | 75.1 µM | > 100 µM |  | TGI (RXF-631 renal): > 100 µM
O=C(OCc1ccccc1)n1cccc1 | > 100 µM | > 100 µM | > 100 µM | > 100 µM | > 100 µM | > 100 µM |  | TGI (RXF-631 renal): > 100 µM
CCC(C)C(=O)OC1CCC=C2C=CC(C)C(CCC3CC(O)CC(=O)O3)C21 (configuration not stated) |  |  |  |  |  |  | > 100 µM | 
CC(=N/NC(N)=S)/C(C)=N/NC(N)=S |  |  |  |  |  |  | > 100 µM | 
c1ccc2c(c1)[nH]c1c3ccccc3sc21 |  |  |  |  |  |  | > 100 µM | 
CCOC(=O)CCn1cnc(N)n1 | > 100 µM | > 100 µM | > 100 µM | > 100 µM | > 100 µM | > 100 µM |  | TGI (RXF-631 renal): > 100 µM
Cc1cn(C2CC(O)C(COC(N)=O)O2)c(=O)[nH]c1=O (configuration not stated) |  |  |  |  |  |  | > 100 µM | 
C/C(=N\NC(=S)N1CCN(c2ccccn2)CC1)c1cccc2cccnc12 |  |  |  |  |  |  | > 100 µM | 
O=C(Nc1cc2cc([N+](=O)[O-])ccc2oc1=O)c1cccs1 |  |  |  |  |  |  | > 100 µM | 
Nc1ncnc2c1ncn2CCCCC(=O)O |  |  |  |  |  |  | > 100 µM | 
c1ccc(/C(=N\Nc2nc3ccccc3s2)c2ccccn2)cc1 |  |  |  |  |  |  | > 100 µM | 
CCSCCCC(=O)O |  |  |  |  |  |  | > 100 µM | 
COc1cc(/C=C/c2ccnc3ccccc23)cc(OC)c1OC |  |  |  |  |  |  | 1.74 µM | 
Oc1cc(O)c2c(c1)OC(c1ccc(O)c(O)c1)C(O)C2c1c(O)cc(O)c2c1OC(c1ccc(O)c(O)c1)C(O)C2 (configuration not stated) |  |  |  |  |  |  | > 100 µM | 
N#CC(C#N)=C1CCC2C(=C(C#N)C#N)CCC12 (configuration not stated) | > 100 µM | > 100 µM | > 100 µM | > 100 µM |  | > 100 µM |  | TGI (RXF-631 renal): > 100 µM
O=C(O)c1[nH]c2c([N+](=O)[O-])cc([N+](=O)[O-])cc2c1C(=O)O |  |  |  |  |  |  | 92.9 µM | 
O=C1c2ccccc2C(=O)c2sc(Nc3ccc([N+](=O)[O-])cc3)nc21 | 3 µM | 4.18 µM | 11.5 µM | 42 µM | 9.03 µM | 45.6 µM | 3.49 µM | TGI (RXF-631 renal): > 55.1 µM
Cc1ccc(NC(=O)CCC(=O)C2Cc3ccccc3C2=O)cc1C (configuration not stated) | > 100 µM | > 100 µM | > 100 µM | > 100 µM | > 100 µM | > 100 µM |  | 

Compound | TGI (M19-MEL melanoma) | TGI (XF 498 CNS) | TGI (DLD-1 colon) | TGI (SNB-78 CNS) | TGI (HOP-18 NSCLC) | TGI (KM20L2 colon) | TGI (MDA-N) | further results
CC(C)(C)OC1=C(OC(C)(C)C)C(O)(c2ccc(Cl)cc2)C1=O (configuration not stated) | > 100 µM |  | > 100 µM | > 100 µM | > 100 µM |  |  | TGI (RXF-631 renal): > 100 µM
CCN(CC)CCCC(C)Nc1ccnc(/C=C/c2ccc(Cl)cc2)c1 (configuration not stated) |  |  |  |  |  |  | 3.62 µM | 
CN(C)CCNC(=O)c1cccc2c1nc(-c1ccncc1)c1ccccc12 | 11.9 µM |  | 14.2 µM | 23.2 µM | 51.1 µM |  |  | 
CC(=O)[CH-]C(=O)c1ccccc1.CC(=O)[CH-]C(=O)c1ccccc1.CC(=O)[CH-]C(=O)c1ccccc1.[Br-].[Zr+4] | > 100 µM |  | > 100 µM |  |  | > 100 µM |  | GI50 (M19-MEL melanoma): 85.8 µM; GI50 (DLD-1 colon): 28.1 µM; GI50 (KM20L2 colon): 51.6 µM
C=CCC1C(=O)CC2(C)C(CC=C)C(=O)CC12C (configuration not stated) | > 100 µM | > 100 µM | > 100 µM |  | > 100 µM | > 100 µM |  | TGI (RXF-631 renal): > 100 µM
O=c1[nH]c(=O)n(C2OC(CO)C(O)C2O)cc1F (configuration not stated) | > 100 µM | > 100 µM | > 100 µM | 60.1 µM | > 100 µM | > 100 µM | > 70.5 µM | TGI (RXF-631 renal): > 100 µM
COc1ccc(C(Nc2ccccn2)c2cc(C(C)(C)C)cc(C(C)(C)C)c2O)cc1 (configuration not stated) |  |  |  |  |  |  | > 100 µM | 
O=C(O)c1cc(Cl)cc(Cc2cc(Cl)cc(C(=O)O)c2O)c1O |  |  |  |  |  |  | > 100 µM | 
CC[P+]1(c2ccccc2)CCCCC1 | > 100 µM |  | > 100 µM | > 100 µM | > 100 µM | > 100 µM |  | TGI (RXF-631 renal): > 100 µM
NC(=O)c1ncn2c(=O)n(CCCl)nnc12 | 376 µM | 149 µM | 720 µM | 527 µM | 1130 µM | 319 µM | 338 µM | TGI (P388 leukemia): 482 µM; TGI (SN12K1 renal): 266 µM; TGI (P388/ADR leukemia): 335 µM
O=C1CCc2ccc(O)c(c2)Oc2ccc(cc2)[C@@H]2O[C@@H]2CO1 | > 100 µM | 30.6 µM | > 100 µM |  | 80.7 µM | > 100 µM |  | 
CCc1cccc(NC(=O)c2cc(/C=C/c3ccccc3)[nH]c(=S)n2)c1 | > 100 µM |  |  | > 100 µM | > 100 µM | > 100 µM |  | 
CSc1cc(C(C)(C)C)ccc1C(O)c1ccc(C(C)(C)C)cc1SC | 23.5 µM | 23.6 µM | 21.7 µM | 40.3 µM | 34 µM | 23.8 µM |  | 
NS(=O)(=O)c1cc(C(=O)O)c(Cl)c([N+](=O)[O-])c1Cl |  |  |  |  |  |  | > 100 µM | 
Oc1ccc(/C=N/NC(=S)Nc2cccnc2)nc1 |  |  |  |  |  |  | > 100 µM | 
CCc1ccccc1NC(=O)C(=O)C(C#N)c1c(Cl)cccc1Cl (configuration not stated) | > 100 µM | > 100 µM | > 100 µM | > 100 µM |  | > 100 µM |  | TGI (RXF-631 renal): > 100 µM
O=C(O)CCSC(=O)Nc1ccccc1 |  |  | > 100 µM | > 100 µM |  | > 100 µM |  | 
